Experimental data: ChEMBL document CHEMBL1124714, “Synthesis and in vitro activity of stereoisomers of a novel thromboxane receptor antagonist, (+-)-(5Z)-7-[3-endo-[(phenylsulfonyl)amino]bicyclo [2.2.1]hept-2-exo-yl]heptenoic acid” (J Med Chem, 1990)

Columns and labels:
Assay type in all cases: functional, organism-based
Homo sapiens = species: Homo sapiens; assay: Inhibitory activity against aggregation of human platelet-rich plasma(induced by 4 uM of U-46619)
Rattus norvegicus [1] = species: Rattus norvegicus; assay: Inhibitory activity against rat thoracic aorta(induced by 30 nM of U-46619)
Rattus norvegicus [2] = species: Rattus norvegicus; assay: Inhibitory activity against aggregation of rat washed platelets (induced by 4 ug/mL of collagen)

IC50 (Homo sapiens)	IC50 (Rattus norvegicus [1])	IC50 (Rattus norvegicus [2])	Compound
450 nM	1.4 nM	2.9 nM	O=C(O)CCC/C=C\C[C@H]1C2CC[C@@H](C2)[C@@H]1NS(=O)(=O)c1ccccc1
60 nM	–	–	O=C(O)CCC/C=C\C[C@@H]1[C@H](CNNC(=O)Nc2ccccc2)[C@H]2CC[C@H]1O2
2500 nM	37.2 nM	4.1 nM	O=C(O)CCC/C=C\C[C@@H]1C2CC[C@@H](C2)[C@@H]1NS(=O)(=O)c1ccccc1
3300 nM	16.9 nM	2.9 nM	O=C(O)CCC/C=C\C[C@@H]1C2CC[C@@H](C2)[C@H]1NS(=O)(=O)c1ccccc1
7200 nM	1800 nM	260 nM	O=C(O)COc1ccc(CCNS(=O)(=O)c2ccccc2)cc1 [SULOTROBAN]
